As usually defined, the kinetic solubility is the concentration staying in solution when a stock, usually in DMSO, is diluted into the medium.

SMILES strings stand for the structures. Values after ≈ are worked out from the molar mass of the structure shown.

The results in this text go back to PubChem BioAssay AID1996.

The conditions of the data set: buffer; pH 7.4; 200.0 µM.
`CS(=O)(=O)Nc1ccc(S(=O)(=O)N2CCCCCC2)cc1` displayed a kinetic solubility of 48.3 µg/mL (≈ 145 µM). For `Nc1cccc(-c2cn3cccnc3n2)c1`, the kinetic solubility is 25.9 µg/mL (≈ 123 µM). `CC12CCC(C(=O)NC3CCCCC3)([C@H](Br)C1=O)C2(C)C` (stereo not given in full) showed a solubility (kinetic) of over 53.4 µg/mL.

For `O=C(/C=C/c1ccc(OCCCF)cc1)N1CCOCC1`, the kinetic solubility was over 44 µg/mL. For `CCOC(=O)c1ccc2c(c1)N(CC#N)C(=O)C(C)(C)O2`, the solubility (kinetic) is over 43.2 µg/mL. In turn, `Nc1nc(F)cc(NCc2ccccc2)n1` had a kinetic solubility of over 32.7 µg/mL.

Compound `COc1ccc(-n2c(C)c(C)c3c(NCCO)ncnc32)cc1` yielded a solubility (kinetic) of over 46.9 µg/mL.

`COc1cc(/C=C(\NC(C)=O)C(=O)N2CCCCC2)ccc1OC(C)=O` yielded a kinetic solubility of 47.7 µg/mL (≈ 132 µM). As to `COC(CNC(=O)c1coc2nc3ccccc3nc12)OC`, the solubility (kinetic) is 34.8 µg/mL (≈ 115 µM).

Regarding `COC(=O)c1ccc(C(=S)N2CCCCC2)cc1`, the solubility (kinetic) was over 39.5 µg/mL. Then `Cc1ccccc1NC(=O)CC(=O)c1ccccc1`, with over 38 µg/mL. The same measure for `CCC(NS(=O)(=O)c1cccs1)c1ccc(C)cc1` (stereo not given): over 44.3 µg/mL; for `O=C(Nc1ccncc1)c1c(Cl)cccc1Cl`: 8.9 µg/mL (≈ 33.3 µM); for `COc1ccc(NC(=O)NCCCCc2ccccc2)cc1`: 2.1 µg/mL (≈ 7.04 µM).

Regarding `Cc1cccc(NS(=O)(=O)c2ccc3[nH]c(=O)[nH]c3c2)c1C`, the kinetic solubility was 5 µg/mL (≈ 15.8 µM). The same measure for `CN(Cc1cccc(F)c1)CC(O)COCc1ccccc1Cl` (stereo not given): 44.9 µg/mL (≈ 133 µM); for `CCCC(=O)OCC(=O)Nc1ccc2[nH]c(=O)[nH]c2c1`: over 41.6 µg/mL. The same measure for `COc1ccc(CCNc2nc(-c3ccncc3)cs2)cc1OC`: 35.9 µg/mL (≈ 105 µM); for `O=C(CN1CCN(Cc2ccccc2)CC1)Nc1nc2ccccc2s1`: 47.4 µg/mL (≈ 129 µM). Turning to `O=C(c1ccc(F)cc1)N1CCC(C(=O)N2CCN(c3ncccn3)CC2)CC1`, the solubility (kinetic) amounted to 59.2 µg/mL (≈ 149 µM). This solubility kinetic and that of the compound before are within 1.5-fold of each other.

`O=C(Cc1ccccc1Cl)N1CCN(c2ccccn2)CC1` gave a solubility (kinetic) of over 47.4 µg/mL. On to `CC(C)Oc1nc(-c2ccc(Cl)cc2)nc2ccccc12`, for which the solubility (kinetic) is under 0.3 µg/mL. The same measure for `Cc1cc(=O)[nH]c(SCC(=O)Nc2nonc2C)n1`: over 42.2 µg/mL; for `Cc1ccc(C(=O)c2cc(Br)ccc2N)cc1`: 2.9 µg/mL (≈ 9.99 µM); for `O=C(Cn1cc(C(=O)C2CC2)c2ccccc21)Nc1ccc(F)cc1`: 0.7 µg/mL (≈ 2.08 µM).

Consider `CN(C)CCNC(=O)c1scc2c1CCCC2.Cl`, for which the kinetic solubility was over 43.3 µg/mL. The compound `Cc1ccc([N+](=O)[O-])cc1NC(=O)c1cccnc1` came in with a kinetic solubility of over 38.6 µg/mL. The compound `CCCn1c(N)c(C(=O)COC(=O)/C=C/c2ccc(OC(F)F)c(OC)c2)c(=O)[nH]c1=O` registered a solubility (kinetic) of 9 µg/mL (≈ 19.9 µM). Then `CC(C)N1CCC(=NNC(=O)c2cccs2)CC1`, with over 39.8 µg/mL. As for `Clc1ncc(CN2CCN(c3ccccc3)CC2)s1`, the solubility (kinetic) came out at 40.9 µg/mL (≈ 139 µM). `Cc1cnc(C(=O)OCC(=O)c2ccc(F)c(F)c2)cn1` yielded a kinetic solubility of over 43.8 µg/mL. The compound `O=S(=O)(/N=C(/c1ccccc1)N1CCOCC1)c1ccc(F)cc1F` showed a kinetic solubility of over 55 µg/mL.

Take `Cc1onc(-c2ccccc2Cl)c1C(=O)Nc1ccc(Cl)cn1`: the kinetic solubility came to 1 µg/mL (≈ 2.87 µM). As to `CCCCCC(O)(CCN1CCCCC1)c1ccc(OCC)cc1.Cl` (stereo not given), the kinetic solubility stood at 53.5 µg/mL.

The compound `COc1ccc(CCNC(=O)Cc2cccs2)cc1OC` came in with a solubility (kinetic) of over 45.8 µg/mL. Then `COc1ccc(OC)c(S(=O)(=O)N2CCc3ccccc3C2)c1`, with 22.1 µg/mL (≈ 66.3 µM); and `C[C@@H]1NC(=O)N(c2ccc(F)cc2)C1=O`, with 31.1 µg/mL (≈ 149 µM); and `Cc1cccc(C(=O)OCC(=O)N2CC(=O)Nc3ccccc32)c1C`, with 4.2 µg/mL (≈ 12.4 µM). The same measure for `CNC(=O)c1c(NC(=O)C(C)C)sc2c1CCC2`: 36.5 µg/mL (≈ 137 µM). The same measure for `CCS(=O)(=O)CCn1c([N+](=O)[O-])cnc1C`: over 37.1 µg/mL; for `CCC(=NCc1cccnc1)c1c(O)n(-c2ccccc2)c(=O)[nH]c1=O`: 43.5 µg/mL (≈ 124 µM).

As to `O=C(C1CCCC1)N1CCCC(Nc2ccccc2)C1` (stereo not given), the solubility (kinetic) is 35.9 µg/mL (≈ 132 µM). Then `Cc1cc(N/C=C(\C#N)S(=O)(=O)c2ccccc2Cl)nc(C)n1`, with 39.5 µg/mL (≈ 113 µM); and `COc1cccc(CSc2nc3ccncc3[nH]2)c1`, with over 40.7 µg/mL; and `CC(C)(C)C(=O)N1CCN(c2ccnc3cc(Cl)ccc23)CC1`, with 45 µg/mL (≈ 136 µM). The same measure for `CCC1(CC)Nc2ccccc2C(=O)N1c1ccc(OC)cc1`: 16.5 µg/mL (≈ 53.2 µM); for `O=C(Cc1ccccc1)N1CCN(CCCc2ccccc2)CC1.O=C(O)C(=O)O`: over 61.9 µg/mL; for `COCCNC(=O)c1ccc(-c2csc(C)n2)cc1`: over 41.5 µg/mL. In the case of `Cc1ccc(NS(=O)(=O)c2cccs2)nc1`, the kinetic solubility was over 38.1 µg/mL. Consider `COc1ccc(N/N=C(\C#N)C(=N)N2CCOCC2)cc1`, for which the kinetic solubility was over 43.1 µg/mL. Consider `COc1ccc(NC(=O)Cc2ccc(C)c(C)c2)cc1Cl`, for which the kinetic solubility is 2.1 µg/mL (≈ 6.91 µM). The compound `CN1CCN(NC(=S)NC(C)(C)CC(C)(C)C)CC1` showed a solubility (kinetic) of over 43 µg/mL. The same measure for `N#Cc1ccccc1CSc1nc(N)cc(N)n1`: 36.6 µg/mL (≈ 142 µM); for `Cl.O=C(NCCCn1ccnc1)c1cc(Cl)cc(Cl)c1`: over 50.2 µg/mL. The same measure for `O=C(O)CC1c2ccccc2CCN1S(=O)(=O)c1cccs1` (stereo not given): over 50.6 µg/mL. The same measure for `N/C(=N\O)c1ccc(N2CCN(c3ncccc3C(F)(F)F)CC2)nc1`: 51.7 µg/mL (≈ 141 µM). On to `O=C(CN1C(=O)NC2(CCCCC2)C1=O)NCCc1ccccc1`, for which the solubility (kinetic) is over 49.4 µg/mL. The same measure for `O=C(NCC1CCCO1)c1ccc(Br)s1` (stereo not given): 42.4 µg/mL (≈ 146 µM); for `Cn1c(CC(=O)Nc2ccccc2)cc2ccccc21`: 1.7 µg/mL (≈ 6.43 µM). Take `CC(=O)Nc1ccc(NC(=O)c2cc[n+]([O-])cc2)cc1`: the solubility (kinetic) is over 40.7 µg/mL. Then `Brc1ccccc1C1Nc2cccc3cccc(c23)N1`, with 2.8 µg/mL (≈ 8.61 µM). Then `O=C(O)c1ccn(CSc2cc(Cl)ccc2Cl)n1`, with over 45.5 µg/mL. On to `CC(=O)c1ccc(N2CCN(C(=O)CCc3ccccc3)CC2)cc1`, for which the kinetic solubility is over 50.5 µg/mL. The same measure for `C=CCN1C(=S)N[C@@H]2CS(=O)(=O)C[C@@H]21`: over 34.8 µg/mL; for `Cc1ccc(C(=O)COc2nc(C)nc3ccccc23)cc1`: 4.3 µg/mL (≈ 14.7 µM); for `CCOC(=O)c1ccc(NC(=O)NCc2cccnc2)cc1`: over 44.9 µg/mL. `O=S(=O)(NC(=S)NC1CCCCC1)c1ccccc1` yielded a kinetic solubility of 44 µg/mL (≈ 147 µM). Compound `CC(C)c1ccc(-c2csc3nc[nH]c(=O)c23)cc1` showed a solubility (kinetic) of 9.1 µg/mL (≈ 33.7 µM). In the case of `O=c1c2ccccc2nc(CNCC2CCCO2)n1-c1ccc(F)cc1` (stereo not given), the solubility (kinetic) amounted to 44.9 µg/mL (≈ 127 µM). Compared with the last compound, the solubility kinetic is about 4.9-fold higher. Then `Cc1onc(-c2ccccc2)c1C(=O)NCc1ccccc1F`, with 6.5 µg/mL (≈ 20.9 µM). Compound `N/C(Cc1nc(-c2ccc(Cl)cc2)cs1)=N/O` showed a kinetic solubility of 32.3 µg/mL (≈ 121 µM).

Consider `CCN(CC)CCNC(=O)COc1ccc(OC)cc1`, for which the kinetic solubility is 32 µg/mL (≈ 114 µM). `CN1C(=S)SC(/[N+]([O-])=C/c2ccc(Cl)cc2)C1(C)C` (stereo not given) gave a kinetic solubility of 15.7 µg/mL (≈ 49.9 µM). This solubility kinetic lies about 2-fold lower than the previous one. Then `Cc1ccc(CC(=O)NC2CCN(C)CC2)cc1`, with over 37 µg/mL; and `COc1ccc(CNC(=O)CCC(=O)Nc2ccc(Cl)cc2)cc1`, with 1.3 µg/mL (≈ 3.75 µM); and `CCC(=O)Nc1c(-c2ccc(C)cc2)nc2ccc(C)cn12`, with 30.4 µg/mL (≈ 104 µM). The same measure for `N#Cc1ccc(C(=O)OCC(=O)NC2CCCC2)cc1`: 39 µg/mL (≈ 143 µM); for `Cc1ccnc(NC(=O)CCc2c[nH]c3ccccc23)c1`: over 41.9 µg/mL; for `Cc1ccccc1NC(=O)Cn1cc(C(=O)C2CC2)c2ccccc21`: 0.7 µg/mL (≈ 2.11 µM). `COc1ccc(CC(=O)Nc2nccs2)cc1S(=O)(=O)N1CCOCC1`: the solubility (kinetic) is over 59.6 µg/mL.

Regarding `CN(CCC#N)C(=O)c1cc2c(s1)-c1ccccc1SC2`, the kinetic solubility was determined as 24.9 µg/mL (≈ 79.2 µM). Then `NS(=O)(=O)c1ccc(CCNC(=O)c2ccc(-c3ccccc3)cc2)cc1`, with under 0.4 µg/mL; and `COc1ccccc1NC(=O)c1ccc(C(=O)c2ccccc2)o1`, with 8.8 µg/mL (≈ 27.4 µM). On to `O=C(COc1ccc(S(=O)(=O)N2CCOCC2)cc1)Nc1ccc(Br)cc1`, for which the solubility (kinetic) worked out at 5.4 µg/mL (≈ 11.9 µM).

`NC(=Nc1ccccc1)c1ccccc1` yielded a solubility (kinetic) of over 29.4 µg/mL. The same measure for `COc1ccccc1C(=O)NCCOc1ccc(C)c(C)c1`: 43 µg/mL (≈ 144 µM); for `O=C(Cc1ccc(F)cc1)Nc1nccs1`: 34.4 µg/mL (≈ 146 µM). Consider `CCOc1ccccc1NC(=O)COC(=O)c1nc2nccc(C)n2n1`, for which the solubility (kinetic) is over 53.3 µg/mL. Then `COc1ccc(C(=O)CCC(C)(C)[N+](=O)[O-])cc1`, with 31.8 µg/mL (≈ 127 µM).

Compound `COc1cccc(C=Nc2ccc(N3CCOCC3)cc2)c1O` gave a solubility (kinetic) of 33.7 µg/mL (≈ 108 µM). The same measure for `COc1cccc(OC)c1CNC(=O)CCSCc1ccccc1F`: 37.3 µg/mL (≈ 103 µM); for `Cc1cccc(NC(=O)CC(=O)Nc2cccc(C)c2)c1`: 5.7 µg/mL (≈ 20.2 µM).

For `O=C(NCc1ccco1)C(=O)N1CCCC1`, the solubility (kinetic) was over 33.3 µg/mL. Then `Cc1c(NC(=O)C(c2ccccc2)c2ccccc2)cccc1C(=O)O`, with over 51.8 µg/mL; and `Cc1cc(C(=O)NCc2ccc(F)cc2)c2ccccc2n1`, with 15.8 µg/mL (≈ 53.7 µM); and `O=C(O)CCCCCNC(=O)C(=O)C1C(=O)Nc2ccccc21` (stereo not given), with over 47.7 µg/mL. The same measure for `COc1cccc(Nc2ccc(C(=O)O)cc2N)c1`: over 38.7 µg/mL; for `O=C(c1ccccc1Cl)N1CCSCC1`: 31.7 µg/mL (≈ 131 µM).

Compound `CC1(C)CC2CC(C)(CN2S(=O)(=O)c2ccccc2[N+](=O)[O-])C1` (stereo not given) showed a kinetic solubility of 2.4 µg/mL (≈ 7.09 µM).

`OC(C#CCN1CCCCCC1)(c1ccccc1)c1cccnc1` (stereo not given) gave a solubility (kinetic) of over 48.1 µg/mL.

`CO/N=C(/CN1CCCCC1)c1ccc(Cl)cc1` yielded a solubility (kinetic) of 8.9 µg/mL (≈ 33.4 µM).

For the compound `CN1C(=O)c2ccc(NC(=O)c3cccc4ccccc34)cc2C1=O`, the solubility (kinetic) amounted to 0.8 µg/mL (≈ 2.42 µM). Then `CCCCN1C(=O)CCC(C(=O)O)C1c1ccc([N+](=O)[O-])cc1` (stereo not given), with over 48.1 µg/mL; and `O=C(Nc1cc2c3c(c1)CC(=O)N3CCC2)c1ccc(F)cc1`, with over 46.5 µg/mL.

In turn, `O=C(Nc1cccc(NC(=O)c2ccccc2F)c1)c1ccccc1` registered a kinetic solubility of 0.9 µg/mL (≈ 2.69 µM).
